Reference: patent US20020119939A1, “Stable aqueous deoxyfructosazine solution” (priority 2000, published 2002)

Test: study of the stability of aqueous deoxyfructosazine solutions (HPLC)
Format: physicochemical
Conditions: 1 mg/ml solution
Procedure: The study of the stability of aqueous deoxyfructosazine solutions was carried out according to the following protocol:
A deoxyfructosazine solution (1 mg/ml) is prepared using an aqueous 0.05M phosphoric acid solution. Samples of the solution are adjusted to pH 2, 3, 4, 5, 6, 7, 8 and 9 by addition of sodium hydroxide. The solutions thus obtained are stored in glass bottles protected from the light, at 4° C. (control solution), 25° C., 45° C. and 60° C. After 2, 7 and 15 days, the samples are diluted 5-fold with a 20 mM, pH 7 phosphate buffer and the stability is examined by high pressure liquid chromatography (HPLC).

OC[C@@H](O)[C@@H](O)[C@H](O)c1cnc(C[C@H](O)[C@H](O)CO)cn1 [deoxyfructosazine, 2-((1R, 2S, 3R)1,2,3,4-tetrahydroxybutyl)-5-((2′S, 3′R)2′, 3′, 4′-trihydroxy-butylpyrazine)]
% of decomposition product calculated relative to the total area of the peaks, Product A (pH 2, stored 15 days at 45° C.): 1.52%
% of decomposition product calculated relative to the total area of the peaks, Product A (pH 2, stored 15 days at 60° C.): 6.94%
% of decomposition product calculated relative to the total area of the peaks, Product B (pH 2, stored 15 days at 60° C.): 0.02%
% of decomposition product calculated relative to the total area of the peaks, Product A (pH 3, stored 15 days at 45° C.): 0.16%
% of decomposition product calculated relative to the total area of the peaks, Product A (pH 3, stored 15 days at 60° C.): 0.87%
% of decomposition product calculated relative to the total area of the peaks, Product B (pH 3, stored 15 days at 60° C.): 0.03%
% of decomposition product calculated relative to the total area of the peaks, Product A (pH 4, stored 15 days at 60° C.): 0.07%
% of decomposition product calculated relative to the total area of the peaks, Product B (pH 4, stored 15 days at 60° C.): 0.05%
% of decomposition product calculated relative to the total area of the peaks, Product B (pH 5, stored 15 days at 45° C.): 0.03%
% of decomposition product calculated relative to the total area of the peaks, Product B (pH 5, stored 15 days at 60° C.): 0.24%
% of decomposition product calculated relative to the total area of the peaks, Product B (pH 6, stored 15 days at 45° C.): 0.21%
% of decomposition product calculated relative to the total area of the peaks, Product B (pH 6, stored 15 days at 60° C.): 0.71%
% of decomposition product calculated relative to the total area of the peaks, Product B (pH 7, stored 15 days at 45° C.): 0.69%
% of decomposition product calculated relative to the total area of the peaks, Product B (pH 7, stored 15 days at 60° C.): 13.9%
% of decomposition product calculated relative to the total area of the peaks, Product B (pH 8, stored 15 days at 45° C.): 0.95%
% of decomposition product calculated relative to the total area of the peaks, Product B (pH 8, stored 15 days at 60° C.): 37.9%
% of decomposition product calculated relative to the total area of the peaks, Product B (pH 9, stored 15 days at 45° C.): 1.92%
% of decomposition product calculated relative to the total area of the peaks, Product B (pH 9, stored 15 days at 60° C.): 37.7%
